The results in this text go back to PMC10845951, “Characterization of a selective, iron-chelating antifungal compound that disrupts fungal metabolism and synergizes with fluconazole” (Microbiology Spectrum, 2024).

The test system of assay [1] is Candida glabrata (ATCC15545; JEY10028) wild type. Nature of the assay: Compound screening: proliferation (OD600, 24 h). It is filed as cell-based. The note with it: wild-type C. glabrata (JEY10028), SD media. As to the method:
For experiments, yeast cells were routinely cultured in YPD media and incubated at 30°C overnight. The cultures were refreshed the next day for 2–3 h in YNB −iron (0.69% yeast nitrogen base without amino acids or iron, with 2% dextrose) media, unless stated, at the same temperature. After incubation, the optical density (OD600) of the cell cultures was measured and adjusted to 0.15.
The collismycin compounds were provided by EntreChem (Spain) at stock solutions of 20 mM in DMSO and stored at −20°C. For serial dilutions of the compounds in clear 96-well plates, intermediate stock concentrations of 100 µM of compound (100 µL for each technical replicate) were prepared in YNB −iron media unless otherwise specified, and 1:1 serial dilutions were performed using a multi-channel pipette. Fifty microliters of cell culture (OD600 = 0.15) were added to the wells containing the compounds, for a total volume of 150 µL. The final concentrations in the wells (with three technical replicates) were equivalent to 0.5, 1, 2.1, 4.2, 8.4, 16.7, 33.3, and 66.6 µM. The OD600 of each well was quantified, and the plates were incubated inside plastic bags (to prevent evaporation) at 30°C for 24 h, after which the final OD600 was measured. The EC50 was calculated using the four-parameter log logistic function with the drc package in R ([57]).

Another assay deals with C. albicans WT. The note with it: 24 h.
[2] abbreviates: Candida albicans, read-out: C. albicans WT Inhibition (%).

The structures appear in SMILES notation.

On to `COc1cc(-c2ccccn2)nc(CO)c1SC` [ColH, collismycin H], for which the antifungal activity entry in assay [1] is “lacked antifungal activity even at very high concentrations”.

With `OC(Cn1cncn1)(Cn1cncn1)c1ccc(F)cc1F` [Fluconazole, fluconazole], the “susceptibility to fluconazole alone” value with C. albicans WT (YNB −iron) was “only susceptible to high concentrations”. In addition, in the assay on C. albicans WT (setting [2]), the inhibition at 3.13 µM was -1.65%, the inhibition at 6.25 µM was determined as 9.43%, the inhibition at 25 µM stood at 14.8% and the inhibition at 50 µM was 15.4%. Moreover, the inhibition at 100 µM with C. albicans WT (setting [2]) was determined as 19.6%.

The inhibition is the drop in the measured response relative to a control, in per cent.
